What was measured:
full-length human LSD1 = full-length human LSD1 (Homo sapiens (Human), UniProt O60341); assay: In vitro enzyme inhibition assay LSD-1 (TR-FRET); type: biochemical; conditions: TR-FRET, 0.1 nM LSD1, 50 nM H3K4me1-biotin peptide, 2 μM FAD, pH7.3; read-out: LSD1 IC50
Description: This assay determines the ability of a test compound to inhibit LSD1 demethylase activity.
The enzymatic assay of LSD1 activity is based on Time Resolved-Fluorescence Resonance Energy Transfer (TR-FRET) detection.
The ability of the compounds disclosed herein to inhibit LSD1 activity was quantified and the respective IC50 value was determined. Table 5 provides the IC50 values of various substituted heterocyclic compounds disclosed herein.

THP-1 (AML) cells = assay: LSD1 CD11b cellular assay (flow cytometry); type: cell-based; conditions: Homo sapiens, 96 h; CD11b expression in THP-1 (AML) cells, flow cytometry, 4 days incubation; read-out: Cellular IC50
In short: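 THP-1 AML cells treated with serially diluted compound (0.2% DMSO final) for 4 days at 37 °C, 5% CO2. CD11b expression measured by flow cytometry with DAPI staining; IC50 derived from percent CD11b-positive cells versus inhibitor concentration.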

| Structure (SMILES) | IC50 (full-length human LSD1) [nM] | IC50 (THP-1 (AML) cells) [nM] |
| --- | --- | --- |
| CCNc1nc(N2CCC(N)CC2)nc(-c2ccc(C#N)c(F)c2)c1-c1ccc2nn(C)cc2c1 [Example 166, 4-[2-(4-aminopiperidin-1-yl)-6-(ethylamino)-5-(2-methyl-2H-indazol-5-yl)-pyrimidin-4-yl]-2-fluorobenzonitrile] | < 100 | < 100 |
| CNc1nc(N2CCC(N)CC2)nc(-c2ccc(C#N)c(F)c2)c1-c1cnn(CC(F)(F)F)c1 [Example 167, 4-[2-(4-aminopiperidin-1-yl)-6-(methylamino)-5-[1-(2,2,2-trifluoroethyl)-1H-pyrazol-4-yl]pyrimidin-4-yl]-2-fluorobenzonitrile] | < 100 | < 100 |
| CNc1nc(N2CCC(N)CC2)nc(-c2ccc(C#N)c(F)c2)c1-c1cnc(N(C)C)nc1 [Example 168, 4-[2-(4-aminopiperidin-1-yl)-5-[2-(dimethylamino)pyrimidin-5-yl]-6-(methylamino)pyrimidin-4-yl]-2-fluorobenzonitrile] | < 100 | < 100 |
| CNc1nc(N2CCC(N)CC2)nc(-c2ccc(C#N)c(F)c2)c1-c1ccc(N(C)C)nc1 [Example 169, 4-[2-(4-aminopiperidin-1-yl)-5-[6-(dimethylamino)pyridin-3-yl]-6-(methylamino)pyrimidin-4-yl]-2-fluorobenzonitrile] | < 100 | < 100 |
| CNc1nc(N2CCC(N)CC2)nc(-c2ccc(C#N)cc2)c1-c1ccc2c(c1)nnn2C [Example 170] | < 100 | < 100 |
| CNc1nc(N2CCC(N)CC2)nc(-c2ccc(C#N)c(F)c2)c1-c1cnc2c(c1)nnn2C [Example 171, 4-[2-(4-aminopiperidin-1-yl)-5-{3-methyl-3H-[1,2,3]triazolo[4,5-b]pyridin-6-yl}-6-(methylamino)pyrimidin-4-yl]-2-fluorobenzonitrile] | < 100 | < 100 |
| CNc1nc(N2CCCNCC2)nc(-c2ccc(C#N)cc2)c1-c1ccc2nn(C)cc2c1 [Example 172, 4-[2-(1,4-diazepan-1-yl)-5-(2-methyl-2H-indazol-5-yl)-6-(methylamino)pyrimidin-4-yl]benzonitrile] | < 100 | < 100 |
| CNc1nc(N2CCC(N(C)C)CC2)nc(-c2ccc(C#N)cc2)c1-c1ccc2nn(C)cc2c1 [Example 173, 4-{2-[4-(dimethylamino)piperidin-1-yl]-5-(2-methyl-2H-indazol-5-yl)-6-(methylamino)pyrimidin-4-yl}benzonitrile] | < 100 | < 100 |
| CNc1nc(N2CCC(N)CC2)nc(-c2ccc(C#N)cc2)c1-c1cnn(CC(F)(F)F)c1 [Example 174, 4-[2-(4-aminopiperidin-1-yl)-6-(methylamino)-5-[1-(2,2,2-trifluoroethyl)-1H-pyrazol-4-yl]pyrimidin-4-yl]-benzonitrile] | < 100 | < 100 |

Continued, values first:

| IC50 (full-length human LSD1) [nM] | IC50 (THP-1 (AML) cells) [nM] | Structure (SMILES) |
| --- | --- | --- |
| < 100 | < 100 | CNc1nc(N2CCCNCC2)nc(-c2ccc(C#N)c(F)c2)c1-c1ccc2nn(C)cc2c1 [Example 162, 4-[2-(1,4-diazepan-1-yl)-5-(2-methyl-2H-indazol-5-yl)-6-(methylamino)pyrimidin-4-yl]-2-fluorobenzonitrile] |
| < 100 | < 100 | CNc1nc(N2CCC(N)CC2)nc(-c2ccc(C#N)cc2)c1-c1ccc2nn(C)cc2c1 [Example 163, 4-[2-(4-aminopiperidin-1-yl)-5-(2-methyl-2H-indazol-5-yl)-6-(methylamino)-pyrimidin-4-yl]-benzonitrile] |
| < 100 | < 100 | CNc1nc(N2CCC(N)CC2)nc(-c2ccc(C#N)cc2)c1-c1ccc2c(cnn2C)c1 [Example 164, 4-[2-(4-aminopiperidin-1-yl)-5-(1-methyl-1H-indazol-5-yl)-6-(methylamino)pyrimidin-4-yl]benzonitrile] |
| < 100 | < 100 | CNc1nc(N2CCC(N)CC2)nc(-c2ccc(C#N)c(F)c2)c1-c1ccc2c(c1)nnn2C [Example 165, 4-[2-(4-aminopiperidin-1-yl)-5-(1-methyl-1H-1,2,3-benzotriazol-5-yl)-6-(methylamino)pyrimidin-4-yl]-2-fluorobenzonitrile] |

Source: US10131664B2 (Celgene Quanticel Research, Inc., priority 2013, dated 2018)
